The results in this text go back to US20140357579A1, “SYNTHETIC PEPTIDE AMIDES AND DIMERS THEREOF” (priority 2006, published 2014).

Data set [1] deals with T1, mouse kappa opioid receptor (mKOR) (Mus musculus, UniProt P33534).
T1 construct: a mouse thymoma cell line that expresses only the kappa-opioid receptor and no other opioid receptor subtype; host or cells: R1.G1 mouse thymoma cells
As to the kind of experiment: Inhibition of forskolin-stimulated cAMP production in R1.G1 cells (TR-FRET cAMP immunoassay). As to conditions: for EC50: inhibition of forskolin-stimulated cAMP. It is filed as cell-based. (Cyclic AMP is a second messenger, typically raised through Gs and lowered through Gi signalling.)

Data set [2] has as its target T2, human kappa opioid receptor (hKOR) (Homo sapiens, UniProt P41145).
T2 construct: expressed in transfected cells; host or cells: HEK-293 cells (ATCC), transient transfection with pcDNA3-hOPRK1
As to the kind of experiment: NFAT-luciferase reporter assay in HEK-293 cells transfected with human kappa opioid receptor and chimeric G-protein. As to conditions: for EC50: transfected HEK-293 cells, luciferase reporter. The format is cell-based. In general terms: Reporter assays use an easily measured gene product as a stand-in for the process of interest.

The subject of data set [3] is mice. As to the kind of experiment: Acetic acid-induced writhing assay in mice. The format is in vivo. As to conditions: IRC mice, delivered subcutaneously. For orientation: Writhing tests count abdominal constrictions after an irritant is injected.
The subject of data set [4] is mice. As to the kind of experiment: Inhibition of locomotion in mice (sedation). As to conditions: delivered subcutaneously.
In data set [5] the target is CYP3A4 (Homo sapiens, UniProt P08684). In words: Recombinant human cytochrome P450 CYP3A4 inhibition (Cerep). As to conditions: 10 uM test compound, percent remaining CYP activity.
Data set [6] deals with CYP1A. As to the kind of experiment: Cytochrome P450 CYP1A inhibition, human liver microsomes (Cerep). As to conditions: 10 uM test compound, percent remaining CYP activity.
Data set [7] has as its target CYP2C9 (Homo sapiens, UniProt P11712). In words: Cytochrome P450 CYP2C9 inhibition, human liver microsomes (Cerep). The conditions noted are these: 10 uM test compound, percent remaining CYP activity.
The target of data set [8] is CYP2D6 (Homo sapiens, UniProt P10635). As to the kind of experiment: Cytochrome P450 CYP2D6 inhibition, human liver microsomes (Cerep). The conditions noted are these: 10 uM test compound, percent remaining CYP activity.
Data set [9] addresses CYP2C19 (Homo sapiens, UniProt P33261). As to the kind of experiment: Cytochrome P450 CYP2C19 inhibition, human liver microsomes (Cerep). The conditions noted are these: 10 uM test compound, percent remaining CYP activity.
For data set [10], the target named is human mu opioid receptor (Homo sapiens, UniProt P35372). In words: Similar assay for potency on the human mu opioid receptor. It is filed as cell-based. As to the method: Synthetic peptide amides of the invention were tested in a similar assay for potency on the human mu opioid receptor.
The synthetic peptide amide (53) was tested in a similar assay for potency on the human mu opioid receptor.

Setting [11] is: percent maximal activation compared to full induction by known kappa agonists.
[12] abbreviates: R1.G1 cells, read-out: mKOR EC50.
The mark [13] stands for this setting: R1.G1 cells, read-out: mKOR Efficacy(%).
The mark [14] stands for this setting: HEK293, percent maximal activation compared to full induction by known kappa agonists, read-out: hKOR Efficacy(%).

Where two headings read alike, the source gives them in different places. Square brackets hold non-standard residues; d marks the D form. Side chains are listed from the residue outwards. Peptide text beside a SMILES is read from it. dOrn = NCCC[C@@H](N)C(=O)O; Inp = O=C(O)C1CCNCC1

One may read the EC50 as the concentration giving half of the maximal effect.

T2 sequence (P41145 whole entry): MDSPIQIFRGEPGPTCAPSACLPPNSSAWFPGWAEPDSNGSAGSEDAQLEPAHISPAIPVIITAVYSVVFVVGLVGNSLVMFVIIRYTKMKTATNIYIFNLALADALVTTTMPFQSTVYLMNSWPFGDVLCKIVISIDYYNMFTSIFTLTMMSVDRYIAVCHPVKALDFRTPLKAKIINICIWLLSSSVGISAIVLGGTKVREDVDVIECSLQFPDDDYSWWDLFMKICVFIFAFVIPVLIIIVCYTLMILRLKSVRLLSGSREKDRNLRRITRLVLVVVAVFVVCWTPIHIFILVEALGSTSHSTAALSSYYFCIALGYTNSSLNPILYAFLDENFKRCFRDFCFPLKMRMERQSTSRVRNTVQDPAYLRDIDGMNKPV
T1 sequence (P33534 whole entry): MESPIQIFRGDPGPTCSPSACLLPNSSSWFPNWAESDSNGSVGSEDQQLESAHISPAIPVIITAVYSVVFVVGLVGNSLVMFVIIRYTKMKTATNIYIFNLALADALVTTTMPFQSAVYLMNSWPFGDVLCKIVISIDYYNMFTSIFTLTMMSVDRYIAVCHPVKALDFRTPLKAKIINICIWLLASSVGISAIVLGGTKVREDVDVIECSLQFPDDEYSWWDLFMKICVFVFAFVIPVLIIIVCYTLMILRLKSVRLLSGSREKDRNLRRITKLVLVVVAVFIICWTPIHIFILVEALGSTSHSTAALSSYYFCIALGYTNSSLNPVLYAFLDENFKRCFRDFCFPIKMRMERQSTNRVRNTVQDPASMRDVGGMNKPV
Chain of CYP2D6 (P10635 whole entry): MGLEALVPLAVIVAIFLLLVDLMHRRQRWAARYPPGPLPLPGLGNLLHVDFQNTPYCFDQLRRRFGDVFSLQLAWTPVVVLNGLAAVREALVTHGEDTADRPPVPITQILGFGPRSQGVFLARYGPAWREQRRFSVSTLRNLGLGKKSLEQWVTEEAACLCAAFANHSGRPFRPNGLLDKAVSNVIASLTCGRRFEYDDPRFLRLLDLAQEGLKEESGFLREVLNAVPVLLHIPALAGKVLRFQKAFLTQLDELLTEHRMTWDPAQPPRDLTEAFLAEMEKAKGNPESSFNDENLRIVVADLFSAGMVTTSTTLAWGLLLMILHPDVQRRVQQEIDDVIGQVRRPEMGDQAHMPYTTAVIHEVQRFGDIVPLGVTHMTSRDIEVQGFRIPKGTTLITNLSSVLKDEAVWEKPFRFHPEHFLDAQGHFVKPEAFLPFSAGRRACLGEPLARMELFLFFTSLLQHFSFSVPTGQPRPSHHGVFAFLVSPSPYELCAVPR
Chain of CYP2C19 (P33261 whole entry): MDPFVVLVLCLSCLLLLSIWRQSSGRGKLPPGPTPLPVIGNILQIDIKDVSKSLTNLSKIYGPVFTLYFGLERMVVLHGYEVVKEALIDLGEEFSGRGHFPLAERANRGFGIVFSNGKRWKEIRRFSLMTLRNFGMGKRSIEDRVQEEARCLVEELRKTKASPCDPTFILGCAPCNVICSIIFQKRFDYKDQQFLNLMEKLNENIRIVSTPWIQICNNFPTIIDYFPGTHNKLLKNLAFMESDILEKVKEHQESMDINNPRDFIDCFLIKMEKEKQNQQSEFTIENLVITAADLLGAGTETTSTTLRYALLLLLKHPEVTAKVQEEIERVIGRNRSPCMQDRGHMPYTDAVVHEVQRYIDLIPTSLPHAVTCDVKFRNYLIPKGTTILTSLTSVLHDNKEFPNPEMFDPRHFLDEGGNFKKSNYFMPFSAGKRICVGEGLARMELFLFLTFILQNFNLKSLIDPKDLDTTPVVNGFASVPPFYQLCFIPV
Chain of CYP3A4 (P08684 whole entry): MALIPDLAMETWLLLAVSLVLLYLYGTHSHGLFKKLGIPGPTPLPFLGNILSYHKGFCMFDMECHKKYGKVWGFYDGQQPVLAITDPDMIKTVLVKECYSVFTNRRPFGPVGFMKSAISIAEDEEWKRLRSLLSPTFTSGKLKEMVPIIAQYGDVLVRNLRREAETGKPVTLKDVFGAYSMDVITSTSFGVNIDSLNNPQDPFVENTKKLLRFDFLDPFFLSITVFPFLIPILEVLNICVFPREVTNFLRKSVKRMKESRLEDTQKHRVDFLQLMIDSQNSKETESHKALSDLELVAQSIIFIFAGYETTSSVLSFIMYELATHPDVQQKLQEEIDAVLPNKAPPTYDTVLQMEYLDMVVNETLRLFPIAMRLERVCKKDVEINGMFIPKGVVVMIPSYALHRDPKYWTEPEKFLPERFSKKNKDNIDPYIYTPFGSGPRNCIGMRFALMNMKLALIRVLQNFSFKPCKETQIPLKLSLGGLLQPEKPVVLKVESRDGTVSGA
Chain of CYP2C9 (P11712 whole entry): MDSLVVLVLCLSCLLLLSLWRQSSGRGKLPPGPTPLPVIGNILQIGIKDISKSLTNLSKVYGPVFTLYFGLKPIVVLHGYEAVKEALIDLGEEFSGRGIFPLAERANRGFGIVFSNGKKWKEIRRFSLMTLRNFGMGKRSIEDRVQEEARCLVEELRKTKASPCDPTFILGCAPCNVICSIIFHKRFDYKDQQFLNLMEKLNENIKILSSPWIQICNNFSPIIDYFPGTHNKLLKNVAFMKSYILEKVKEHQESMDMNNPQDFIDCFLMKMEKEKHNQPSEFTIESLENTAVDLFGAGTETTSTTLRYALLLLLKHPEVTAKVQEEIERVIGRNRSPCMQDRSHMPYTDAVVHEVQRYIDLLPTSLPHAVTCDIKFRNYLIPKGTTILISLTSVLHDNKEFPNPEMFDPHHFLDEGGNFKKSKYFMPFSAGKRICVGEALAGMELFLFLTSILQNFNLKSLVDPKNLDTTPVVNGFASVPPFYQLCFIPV
Chain of human mu opioid receptor (P35372 whole entry): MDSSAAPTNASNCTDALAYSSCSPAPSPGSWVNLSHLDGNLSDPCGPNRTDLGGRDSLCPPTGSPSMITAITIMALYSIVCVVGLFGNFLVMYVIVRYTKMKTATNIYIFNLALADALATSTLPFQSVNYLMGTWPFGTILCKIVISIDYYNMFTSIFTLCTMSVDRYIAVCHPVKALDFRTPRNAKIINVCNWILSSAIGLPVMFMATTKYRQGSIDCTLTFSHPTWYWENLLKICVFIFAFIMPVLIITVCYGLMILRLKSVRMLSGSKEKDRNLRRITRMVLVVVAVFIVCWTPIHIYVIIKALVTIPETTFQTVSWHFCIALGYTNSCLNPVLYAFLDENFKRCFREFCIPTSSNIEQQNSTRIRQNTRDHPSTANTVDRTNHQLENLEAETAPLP

As for `CC(C)C[C@@H](NC(=O)[C@@H](Cc1ccccc1)NC(=O)[C@H](N)Cc1ccccc1)C(=O)N[C@H](CCCN)C(=O)N1CCCN(C2=NCCN2)CC1` [Compound 17, D-Phe-D-Phe-D-Leu-D-Orn-[4-(4,5-dihydro-1H-imidazol-2-yl)homopiperazine amide]], the “mKOR Efficacy(%)” value in data set [1] (R1.G1 cells) came to 99%. Further, the “hKOR Efficacy(%)” value in [2] (setting [11]) is reported as 90%. In addition, in [2] (read-out: hKOR EC50), the concentration for a half-maximal effect (EC50) was 0.12 nM. The “ED50 in the acetic acid-induced writhing assay” value in data set [3] is 0.074 mg/kg. Further, in data set [4], the “ED50 in the inhibition of locomotion assay” value stood at 3.172 mg/kg. Also, the “Percent Activity of CYP3A4” value in [5] (Expt 1) is given as 94.7%; in data set [5] (Expt 2), 95.9%. For the same molecule, the results for the “Percent Activity of CYP1A” value in data set [6] (Expt 1) and in data set [6] (Expt 2) were 97.1% and 95.8%, respectively. Further, the “Percent Activity of CYP2C9” value in [7] (Expt 1) is on record as 99.2%; in data set [7] (Expt 2), 98.2%. In addition, the figures for the “Percent Activity of CYP2D6” value in data set [8] (Expt 1) and in data set [8] (Expt 2) were 98.4% and 98.2%, respectively. For the same molecule, the “Percent Activity of CYP2C19” value came out at 94.1% in [9] (Expt 1) and 97.8% in [9] (Expt 2).

With `CC(C)C[C@@H](NC(=O)[C@@H](Cc1ccccc1)NC(=O)[C@H](N)Cc1ccccc1)C(=O)N[C@H](CCCCN)C(=O)NCc1ccc(C(F)(F)F)nc1` [Compound 35, D-Phe-D-Phe-D-Leu-D-Lys-[6-trifluoromethyl-3-aminomethylpyridine amide]], in [1] (R1.G1 cells), the “mKOR Efficacy(%)” value is recorded as 85%. The “hKOR Efficacy(%)” value in data set [2] (setting [11]) came out at 95%.

As to `CC(C)C[C@@H](NC(=O)[C@@H](Cc1ccccc1)NC(=O)[C@H](N)Cc1ccccc1)C(=O)N[C@H](CCCN)C(=O)NCCN1CCN(CC(N)=O)CC1` [Compound 13, D-Phe-D-Phe-D-Leu-D-Orn-[4-(2-aminoethyl)-1-carboxymethyl-piperazine]-NH2], the “mKOR Efficacy(%)” value in data set [1] (R1.G1 cells) was determined as 96%. Besides, in data set [2] (setting [11]), the “hKOR Efficacy(%)” value was determined as 96%.

Take `CC(C)C[C@@H](NC(=O)[C@@H](Cc1ccccc1)NC(=O)[C@H](N)Cc1ccccc1)C(=O)N[C@H](CCCN)C(=O)N1CCC(N)(C(=O)O)CC1` [Compound 6, D-Phe-D-Phe-D-Leu-D-Orn-[omega(4-Aminopiperidine-4-carboxylic acid)]-OH]: the “mKOR Efficacy(%)” value in [1] (R1.G1 cells) was determined as 100%. For the same molecule, the “hKOR Efficacy(%)” value in data set [2] (setting [11]) came out at 107%. In addition, the EC50 in data set [2] (read-out: hKOR EC50) stood at 0.17 nM.

`CC(C)C[C@@H](NC(=O)[C@@H](Cc1ccccc1)NC(=O)[C@H](N)Cc1ccccc1)C(=O)N[C@H](CCCN)C(=O)N1CCC(CC(=O)O)CC1` [Compound 2, D-Phe-D-Phe-D-Leu-D-Orn-[4-Carboxymethyl-piperidine]-OH]: the “mKOR Efficacy(%)” value in [1] (R1.G1 cells) worked out at 97%. Also, the “hKOR Efficacy(%)” value in data set [2] (setting [11]) turned out to be 99%. Besides, the EC50 in [2] (read-out: hKOR EC50) stood at 0.13 nM.

In the case of `CC(C)C[C@@H](NC(=O)[C@@H](Cc1ccccc1)NC(=O)[C@H](N)Cc1ccccc1)C(=O)N[C@H](CCCN)C(=O)NCCCC[C@@H](NC(=O)[C@H](N)CCCN)C(=O)O` [Compound 45], the EC50 was 0.05 nM in data set [1] (setting [12]) and 0.28 nM in data set [2] (read-out: hKOR EC50). Further, the Emax in [1] (setting [13]) and in data set [2] (setting [14]) was 96% throughout.

In the case of `CC(C)C[C@@H](NC(=O)[C@@H](Cc1ccccc1)NC(=O)[C@H](N)Cc1ccccc1)C(=O)N[C@H](CCCN)C(=O)NCCCC[C@H](NC(=O)[C@H](N)CCCN)C(=O)O` [Compound 42], the EC50 in [1] (setting [12]) came to 0.24 nM; in data set [2] (read-out: hKOR EC50), 0.27 nM. In addition, the Emax was 97% in [1] (setting [13]) and 95% in data set [2] (setting [14]).

As to `CC(C)C[C@@H](NC(=O)[C@@H](Cc1ccccc1)NC(=O)[C@H](N)Cc1ccccc1)C(=O)N[C@H](CCCN)C(=O)N1CCOC(C(=O)O)C1` (stereo partly drawn) [Compound 53, D-Phe-D-Phe-D-Leu-D-Orn-[R/S-2-carboxymorpholine]-OH], the “mKOR Efficacy(%)” value in data set [1] (R1.G1 cells) worked out at 100%. Besides, in [2] (setting [11]), the “hKOR Efficacy(%)” value is on record as 100%. Further, the EC50 in data set [10] is ≥ 1000 nM.

Turning to `CC(C)C[C@@H](NC(=O)[C@@H](Cc1ccccc1)NC(=O)[C@H](N)Cc1ccccc1)C(=O)N[C@H](CCCN)C(=O)N1CCCNCC1` [Compound 11, D-Phe-D-Phe-D-Leu-D-Orn-[homopiperazine amide]], the “mKOR Efficacy(%)” value in [1] (R1.G1 cells) was 100%. Further, in data set [2] (setting [14]), the Emax was found to be 90%. Further, the EC50 in data set [2] (read-out: hKOR EC50) was 0.12 nM.

For the molecule `CC(C)C[C@@H](NC(=O)[C@@H](Cc1ccccc1)NC(=O)[C@H](N)Cc1ccccc1)C(=O)N[C@H](CCCCN)C(=O)N1CCN(c2nccs2)CC1` [Compound 29, D-Phe-D-Phe-D-Leu-D-Lys-[2-(piperazin-1-yl)thiazole amide]], the “mKOR Efficacy(%)” value in [1] (R1.G1 cells) is given as 85%. In data set [2] (setting [11]), the “hKOR Efficacy(%)” value is 92%.

Turning to `CC(C)C[C@@H](NC(=O)[C@@H](Cc1ccccc1)NC(=O)[C@H](N)Cc1ccccc1)C(=O)N[C@H](CCCCN)C(=O)N1CCN(c2ccccn2)CC1` [Compound 28, D-Phe-D-Phe-D-Leu-D-Lys-[1-(pyridin-2-yl)piperazine amide]], the “mKOR Efficacy(%)” value in data set [1] (R1.G1 cells) is 89%. Moreover, in data set [2] (setting [11]), the “hKOR Efficacy(%)” value came to 100%.

For the molecule `CC(C)C[C@@H](NC(=O)[C@@H](Cc1ccccc1)NC(=O)[C@H](N)Cc1ccccc1)C(=O)N[C@H](CCCN)C(=O)N1CCCN(C(=N)N)CC1` [Compound 16, D-Phe-D-Phe-D-Leu-D-Orn-[4-Amidinohomopiperazine amide]], the Emax in data set [1] (setting [13]) was determined as 99%; in data set [2] (setting [14]), 90%. In addition, the EC50 in data set [2] (read-out: hKOR EC50) was 0.12 nM.

In the case of `CC(C)C[C@@H](NC(=O)[C@@H](Cc1ccccc1)NC(=O)[C@H](N)Cc1ccccc1)C(=O)N[C@H](CCCN)C(=O)NCCCC[C@H](NC(=O)[C@@H](CCCN)NC(=O)[C@@H](CC(C)C)NC(=O)[C@@H](Cc1ccccc1)NC(=O)[C@H](N)Cc1ccccc1)C(N)=O` [Compound 43] (H-[dF][dF][dL][dOrn]K([dOrn-dL-dF-dF])-NH2), the EC50 came out at 0.08 nM in data set [1] (mKOR EC50 (nM), R1.G1 cells) and 0.13 nM in data set [2] (hKOR EC50 (nM)). In addition, the Emax in [1] (read-out: mKOR Efficacy(%), R1.G1 cells) stood at 101%; in [2] (HEK293, read-out: hKOR Efficacy(%), percent maximal activation compared to full induction by known kappa agonists), 94%.

`CC(C)C[C@@H](NC(=O)[C@@H](Cc1ccccc1)NC(=O)[C@H](N)Cc1ccccc1)C(=O)N[C@H](CCCCN)C(=O)NCc1ccc2[nH]c(=O)[nH]c2c1` [Compound 37, D-Phe-D-Phe-D-Leu-D-Lys-[5-(aminomethyl)-1H-benzo[d]imidazol-2(3H)-one amide]]: the “mKOR Efficacy(%)” value in data set [1] (R1.G1 cells) is on record as 87%. In addition, the “hKOR Efficacy(%)” value in [2] (setting [11]) worked out at 99%.

Regarding `CC(C)C[C@@H](NC(=O)[C@@H](Cc1ccccc1)NC(=O)[C@H](N)Cc1ccccc1)C(=O)N[C@H](CCCN)C(=O)N1CCC(C(=O)O)CC1` [Compound 9, D-Phe-D-Phe-D-Leu-D-Orn-[Isonipecotic acid]-OH] (H-[dF][dF][dL][dOrn][Inp]-OH; N-terminus assumed), in data set [1] (R1.G1 cells), the “mKOR Efficacy(%)” value was 92%. Moreover, the Emax in data set [2] (setting [14]) is 134%. Also, the EC50 in data set [2] (read-out: hKOR EC50) came to 0.39 nM.
